Source: patent US10745370B2, “Farnesyl transferase inhibitors and uses thereof” (MACKAY MEMORIAL HOSPITAL, priority 2016, dated 2020)

Legend:
macrophages [1] = test: Phagocytosis assay with fluorescent latex beads; assay type: cell-based, human; details: M1 and/or M2 populations, FIG. 6
Protocol: (§1) As to the effects of the present compound on macrophages, the CD14^+ cells were cultivated and treated as indicated above except the addition of cytokine cocktail on day 6. The macrophages were collected on day 6 and subjected to further assays, including viability assay, trypan blue exclusion test, morphology observation, cell marker staining, and phagocytotic activity analysis.
The phagocytic activity of macrophages was measured by using flow cytometric analysis. The green fluorescent latex beads (carboxylate-modified beads with diameter 2 μm) were suspended in PBS solution and added into macrophage culture for 2 hours with vortexa at 37° C. The macrophages were subjected to flow cytometry for measurement of fluorescent intensity

M1 macrophages = test: Differentiation analysis, cell viability of M1 macrophages; assay type: cell-based, human; details: for Cell viability of M1 macrophages: LPS-induced M1 differentiation, 6 days, control 100%; for change in M1 population of macrophages compared with control: Table 4
Protocol: (§2) M1 differentiation of freshly isolated CD14^+ cells was induced by the addition of lipopolysaccharide (LPS), while M2 differentiation of freshly isolated CD14^+ cells was induced by the addition of IL-4. Then, the present compounds (e.g., Mib-5, 6, 7, 8, 9, or 10) were added at the indicated dosages. 6 days later, the population of the differentiated macrophages were then determined by cell viability analysis. The cell viability was measured by cell counting kit-8 (CCK-8, Sigma). The half maximal inhibitory concentrations (IC50) of the test compounds on macrophages or dendritic cells were calculated.

dendritic cells [2] = test: Trypan blue exclusion analysis of dendritic cells; assay type: cell-based, human; details: 10 μM, seven days, FIG. 7
Protocol: (§3) Mononuclear cells (MNCs) were separated from the peripheral blood of healthy donors obtained with written consent by use of Ficoll-Hypaque density centrifugation, followed by positive selection with magnetic anti-CD14 microbeads.
(§4) The isolated CD14^+ cells were cultivated in Minimum Essential Medium (MEM medium) supplemented with 10% fetal bovine serum (FBS), 100 ng/ml granulocyte-macrophage colony-stimulating factor (GM-CSF, Gentaur), and 50 ng/ml interleukin-4 (IL-4, R&D), and kept in an environment of 37° C. with 5% CO2/95% air.
(§5) To evaluate the effects of the present compound on dendritic cells, the CD14^+ cells were respectively treated with 10 μM of test compound (i.e., Mib-5, Mib-6, Mib-7, Mib-8, Mib-9, and Mib-10) on day 1. Then, on day 3, the cultured medium in each well was replenished by adding half the volume of the cultured medium containing the same treatment as indicated above. Then, on day 6, a cytokine cocktail containing IL-1, IL-6, and tumor necrosis factor-α (TNF-α) was added to induce maturation. On day 7, the differentiated dendritic cells were collected and subjected to further assays, including viability assay, morphology observation, and cell marker staining.
The dye exclusion test is used to determine the number of viable cells present in a cell suspension. […] In this test, the cells were first treated with a test compound (i.e., Mib-5, 6, 7, 8, 9 or 10) for a certain period of time (e.g., 72 hours), then the cells were harvested and re-suspended in suitable buffer solution. The cell suspension was then mixed with trypan blue dye and then visually examined to determine whether cells had taken up or excluded the dye. A viable cell will have a clear cytoplasm, whereas a nonviable cell will have a blue cytoplasm. The concentration required to reduce viability by 50% (IC50) after 72 hours was extrapolated from the dose-response curves by different concentrations of the test compound using a second-order polynomial regression model and analyzing with SigmaPlot Software (Systat Software Inc., San Jose, Calif.).
(§6) In this example, the effects of the present compounds on dendritic cells were investigated. Briefly, the dendritic cells were respectively treated with 10 μM of Mib-5, Mib-6, Mib-7, Mib-8, or Mib-10. Seven days later, the cells were harvested and subjected to analysis of morphology observation, cell viability, and/or cell marker expression.

macrophages [3] = test: Morphology of macrophages (photographs, Liu's staining); assay type: cell-based, human; details: for morphology and adhesion of treated macrophages: 10 μM, FIG. 1 panel B; for morphology of cells by Liu's staining compared with control cells: FIG. 1 panel C
Protocol: as §3, §4, §5, §1
Cells were transferred to a glass coverslide and covered with solution A (0.5 g of methylene blue and 1.7 g of Eosin yellow dissolved in 1,000 ml of ethanol). After 45 seconds, solution B (1.3 g of azure, 1.4 g of methylene blue, 23.38 g of Na2HPO4, 6.5 g of KH2PO4, dissolved in 1,000 ml of distilled water) was added in the proportion of 2 parts of B to 1 part of A. Mixed the solutions well by blowing the surface. The slide was left standing for 90 seconds and then washed off the staining solution rapidly by running water. The morphology of stained cells was then examined under microscope.

dendritic cells [4] = test: Cell marker expression on dendritic cells, flow cytometry; assay type: cell-based, human; details: 10 μM; for expression of CD1a, differentiation marker of dendritic cells: FIG. 9; for expression of CD83, maturation marker of dendritic cells: FIG. 10
Protocol: as §3, §4, §5
The expression of various types of cell markers, such as CD14, CD206, and CD80 expressed on the surface of macrophages, and CD1a, CD14, CD83, and HLA-DR expressed on the dendritic cells, were respectively detected by fluorescein isothiocyanate (FITC) and phycoerythrin (PE)-conjugated monoclonal antibodies in FACS caliber flowcytometer. Monoclonal antibodies used in this examples included anti-CD14 (IgG-FITC), anti-CD206 (IgG-FITC), anti-CD80-PE, anti-CD1a-PE, anti-CD83-PE and anti-human leukocyte antigen (HLA)-DR-PE. Results were analyzed by CellQuest software.
as §6

M2 macrophages = test: Differentiation analysis, cell viability of M2 macrophages; assay type: cell-based, human; details: for Cell viability of M2 macrophages: IL-4-induced M2 differentiation, 6 days, control 100%
Protocol: as §2

[5] = system: skin allograft, C57BL/6 donors, BALB/c recipients; test: Skin allo-transplantation rejection model; assay type: in vivo, mice; details: 10 mg/kg/day intraperitoneally, 20 days, FIG. 13
Protocol: Six- to eight-week-old male C57BL/6(H-2^b) and BALB/c(H-2^d) mice were purchased from the Animal Resource Center of the National Science Council of Taiwan (Taipei, Taiwan). All animal experiments were approved by the animal ethics committee of Mackay Memorial Hospital. Surgery for skin transplantation was performed with standardized procedures. In brief, a 2×1 cm full-thickness skin graft was harvested from the C57BL/6 donor mouse. A graft bed on the BALB/c recipient was prepared. The skin graft was sutured to the recipient's graft bed. Rejection was defined as necrosis of more than 80% of the epidermal surface of the graft. The tested agents included vehicle (as control), Mib-5 (10 mg/kg/day), Mib-7 (10 mg/kg/day) and rapamycin (1.5 mg/kg/day as positive control). Treatments were administered intraperitoneally daily for consecutive 20 days until rejection was observed.
The skin allo-transplantation model, by using C57BL/6(H-2^b) mice as donors and BALB/c(H-2^d) mice as recipients, was used to examine the effect of Mib-5 and Mib-7 on allograft survival, in which rapamycin served as a positive control.

COC1=CC(=O)[C@@]2(c3cc(=O)c4ccc(OC)cc4o3)[C@H](C[C@]3(C)[C@@H](C(=O)O)CC=C4[C@H]3CCCC4(C)C)C(C)=CC[C@H]2C1=O [Mib-5]
phagocytic activity compared with control (macrophages [1]): reduced
Cell viability of M1 macrophages (M1 macrophages): 63.5%
change in M1 population of macrophages compared with control (M1 macrophages): significant reduction
levels of viable dendritic cells (dendritic cells [2]): reduced
morphology and adhesion of treated macrophages (macrophages [3]): became rounded up, and were less adhesive
morphology of cells by Liu's staining compared with control cells (macrophages [3]): not significantly affected
expression of CD1a, differentiation marker of dendritic cells (dendritic cells [4]): inhibited
expression of CD83, maturation marker of dendritic cells (dendritic cells [4]): inhibited
Cell viability of M2 macrophages (M2 macrophages): 86.4%
change in M2 population of macrophages compared with control (M2 macrophages; Table 4): slight decrease
mean survival of skin allograft in recipient mice [5]: significantly prolonged

COC1=CC(=O)[C@@]2(c3cc(=O)c4c(O)cc(O)cc4o3)[C@H](C[C@]3(C)[C@@H](C(=O)O)CC=C4[C@H]3CCCC4(C)C)C(C)=CC[C@H]2C1=O [Mib-7]
phagocytic activity compared with control (macrophages [1]): reduced
Cell viability of M1 macrophages (M1 macrophages): 82.5%
change in M1 population of macrophages compared with control (M1 macrophages): decrease
levels of viable dendritic cells (dendritic cells [2]): reduced
morphology and adhesion of treated macrophages (macrophages [3]): became rounded up, and were less adhesive
morphology of cells by Liu's staining compared with control cells (macrophages [3]): not significantly affected
expression of CD1a, differentiation marker of dendritic cells (dendritic cells [4]): inhibited
expression of CD83, maturation marker of dendritic cells (dendritic cells [4]): inhibited
Cell viability of M2 macrophages (M2 macrophages): 136.4%
increase of M2 population (M2 macrophages; compared with control, Table 4): about 40%
mean survival of skin allograft in recipient mice [5]: significantly prolonged
